In data set [1] the test system is PC-3 (prostate). Description: Effect on cell lines (CI50, % growth inhibition). It counts as cell-based. Conditions: for IC50: Homo sapiens, PC-3, read-out: CI50 ± EE, μM PC-3 (prostate).
The subject of data set [2] is K562 (leukemia). Description: Effect on cell lines (CI50, % growth inhibition). It counts as cell-based. Conditions: Homo sapiens; for IC50: K562, read-out: CI50 ± EE, μM K562 (leukemia).
In data set [3] the test system is HCT-15 (colon). Description: Effect on cell lines (CI50, % growth inhibition). Conditions: Homo sapiens; for IC50: HCT-15, read-out: CI50 ± EE, μM HCT-15 (colon). It is filed as cell-based.
In data set [4] the test system is U251 (CNS). The data set is described as follows: Effect on cell lines (CI50, % growth inhibition). It is filed as cell-based. Particulars: Homo sapiens; for IC50: U-251, read-out: CI50 ± EE, μM U251 (CNS).
Data set [5] has as its system HCT-116. The data set is described as follows: Cytotoxicity against colon cancer cell lines, 24, 48 and 72 hours. It counts as cell-based.
Data set [6] concerns β-galactosidase enzyme. The data set is described as follows: β-galactosidase activity (cellular senescence) in colon cancer cell lines. It counts as cell-based. Conditions: 72 hours, 30 μM, colon cancer cell lines HCT-116 and HCT-15. On the procedure:
FIG. 12. A) β-galactosidase activity in HCT-116 cells, B) β-galactosidase activity in HCT-15 cells, C) Cell control of the HCT-116 cell line, D) HCT-116 cells treated with In […] for 72 hours.
Now, as already mentioned above, the mechanism by which In exerts an antitumor effect without generating cytotoxicity on healthy cells is through the induction of cellular senescence.

Data set [7] has as its system HCT-116 line. The data set is described as follows: Apoptosis induction, double labeling with annexin V and IP. It counts as cell-based. Particulars: 30 μM, 72 hours of treatment. From the text: FIG. 2. Results of the apoptosis induction using a double labeling with annexin V and IP, due to the effect of compound In.
Data set [8] deals with breast (MCF-7). The data set is described as follows: % growth inhibition in cell lines. Conditions: Homo sapiens, MCF7. It is filed as cell-based.
In data set [9] the test system is HCT-116 cell xenotransplantation. The data set is described as follows: Cell morphology in tumor tissues (hematoxylin-eosin, DAPI). Particulars: tumor tissues of treated mice vs control group.
Data set [10] has as its system lung (SKUL). Description: % growth inhibition in cell lines. It is filed as cell-based.
The subject of data set [11] is SW-620. The data set is described as follows: Cytotoxicity against colon cancer cell lines, 24, 48 and 72 hours. It counts as cell-based.
Data set [12] relates to HCT-15. The description is as above. It is filed as cell-based.
A short description of data set [13]: Toxicity in nu/nu mice (LD50, weight, physical or behavioral changes). It is filed as in vivo. The source says: FIG. 7. […] Each point in the graphs represents the mean±SD of the weight of 3 mice per experimental group.
The subject of data set [14] is HCT-116 cancer cells. The data set is described as follows: Xenotransplantation study, antitumor activity. It counts as in vivo, mice. Conditions: for reduction in tumor size: vs untreated mouse.
Text: The arrows indicate the days of compound administration, in a regimen of 1 administration per week for 3 weeks, each point represents the average and SD of 6 mice.
The arrows indicate the days of administration, with 3 administrations per week for 3 weeks, each point representing the mean±SD of 6 mice.
The test system of data set [15] is proliferating cell nuclear antigen (PCNA). The data set is described as follows: PCNA immunolabelling of xenotransplanted tumor tissue. Conditions: groups treated at different doses; control group 54.81%±15.63.
The nature of data set [16]: Blood parameters of the treated mice.
[17] abbreviates: 2 mg/Kg, administration 3 (times a week).

Take `CC1(C)c2oncc2C[C@]23C[C@]24CC[C@]2(C)C([C@]5(C)CC[C@H](C(C)(C)O)O5)[C@@H](O)C[C@@]2(C)C4CCC13` (some centres unmarked) [Ii]: the IC50 worked out at 13 ± 3.56 µM in data set [1], 11 ± 1.05 µM in [2], 10.2 ± 0.77 µM in [3] and 11.3 ± 1.55 µM in data set [4].

For the compound `CC(=O)O[C@H]1C[C@@]2(C)C3CCC4C(C)(C)/C(=N/O)CC[C@@]45C[C@@]35CC[C@]2(C)C1[C@]1(C)CC[C@H](C(C)(C)OC(C)=O)O1` (some centres unmarked) [Ig], the IC50 in data set [1] was 12.6 ± 2.42 µM; in data set [2] it was 15.2 ± 2.35 µM; in data set [3], 28.9 ± 3.17 µM; in [4], 21.4 ± 1.67 µM.

As for `CC(=O)O[C@H]1C[C@@]2(C)C3CCC4C(C)(C)C(=O)C=C[C@@]45C[C@@]35CC[C@]2(C)C1[C@]1(C)CC[C@H](C(C)(C)OC(C)=O)O1` (some centres unmarked) [Ic], the IC50 in [1] is 13.9 ± 0.324 µM; in data set [2], above 100 µM; in data set [3], above 100 µM; in data set [4], 58.4 ± 4 µM.

For `CC1(C)C(=O)CC[C@]23C[C@]24CC[C@]2(C)C([C@]5(C)CC[C@H](C(C)(C)O)O5)[C@@H](O)C[C@@]2(C)C4CCC13` (some centres unmarked) [In, Argentantine A], the IC50 in data set [5] (Homo sapiens, HCT-116, incubation 24 h) was determined as 87.83 ± 0.7 µM; in [5] (Homo sapiens, HCT-116, incubation 48 h) it was 53.33 ± 0.2 µM; in [5] (Homo sapiens, HCT-116, incubation 72 h) it was 43.17 ± 0.4 µM; in data set [1], 20.2 ± 3.44 µM; in [2] it was 38.6 ± 4.47 µM; in [3], 31.7 ± 1.1 µM. The IC50 was 115.6 ± 0.4 µM in data set [11] (Homo sapiens, SW-620, incubation 24 h); 72.46 ± 0.2 µM in data set [11] (Homo sapiens, SW-620, incubation 48 h); 61.3 ± 1.2 µM in data set [11] (Homo sapiens, SW-620, incubation 72 h); 95.43 ± 0.6 µM in data set [12] (Homo sapiens, HCT-15, incubation 24 h); 59.7 ± 1.3 µM in data set [12] (Homo sapiens, HCT-15, incubation 48 h); 44.8 ± 0.9 µM in data set [12] (Homo sapiens, HCT-15, incubation 72 h). Moreover, the IC50 in data set [4] came out at 27.3 ± 1 µM. In addition, the inhibition at 50 µM in data set [1] (50 μM, PC-3) is 20.2%; in [2] (50 μM, K562) it was 38.6%; in data set [8] it was 26.6%; in [3] (50 μM, HCT-15), 31.7%; in data set [10], 0%; in data set [4] (U-251, 50 μM, U251) it was 27.3%. In data set [6], the β-galactosidase enzyme activity result was “observed predominantly in cells of the HCT-116 line”. In addition, the apoptosis induction entry in data set [7] is recorded as “only induced apoptosis in the HCT-116 line”. Further, the “fragmented nuclei (DAPI labeling) as signal of cell death” value in [9] is “no fragmented nuclei”. Moreover, in data set [13] (500 mg/kg once a week and 250 mg/kg three times a week for three weeks), the “physical or behavioral changes” value is “no physical or behavioral changes”. In addition, the weight loss entry in data set [13] (250 and 500 mg/kg) is given as “does not cause weight loss”. The toxicity result in [13] (500, 250 or 125 mg/kg once a week for 3 weeks, nu/nu mice) is listed as “does not show toxicity”. Besides, the LD50 at 3 weeks in data set [13] (mouse, in vivo, intraperitoneal, nu/nu mice, read-out: mean lethal dose (LD50)) is above 500 mg/kg. Besides, the “reduction in tumor size” value in data set [14] (250 mg/kg once a week for 21 days) was 49.1%; in data set [14] (500 mg/kg once a week for 21 days) it was 48.8%. Moreover, in [14] (250 mg/kg three times a week for 21 days, vs untreated mice), the “reduction of the tumor” value was 78.1%. In addition, in data set [15], the “quantification of PCNA (percentage of PCNA positive cells)” value is 10-20%.

Turning to `N.N.[Cl][Pt][Cl]` [Cisplatin], the IC50 was 10.8 ± 0.7 µM in data set [5] (HCT-116, incubation 24 h); 8.37 ± 0.5 µM in [5] (HCT-116, incubation 48 h); 3.09 ± 0.3 µM in data set [5] (HCT-116, incubation 72 h); 18 ± 0.5 µM in data set [11] (SW-620, incubation 24 h); 13.9 ± 0.4 µM in data set [11] (SW-620, incubation 48 h); 9.09 ± 0.3 µM in data set [11] (SW-620, incubation 72 h). Also, the IC50 was 12.5 ± 0.5 µM in data set [12] (HCT-15, incubation 24 h); 10.7 ± 0.6 µM in data set [12] (HCT-15, incubation 48 h); 4.68 ± 0.3 µM in [12] (HCT-15, incubation 72 h). Further, the Alanine aminotransferase in data set [16] (setting [17]) was determined as 75.21 UL; in [16] (4 mg/Kg, once a week), 62.89 UL. The Aspartate aminotransferase is 197.32 UL in [16] (setting [17]) and 151.25 UL in data set [16] (4 mg/Kg, once a week). In addition, the Creatinine in data set [16] (setting [17]) came out at 43.3 μM/l; in data set [16] (4 mg/Kg, once a week) it was 29.06 μM/l. The Erythrocytes in [16] (setting [17]) was found to be 7.14e+12 L⁻¹; in data set [16] (4 mg/Kg, once a week) it was 7.36e+12 L⁻¹. In addition, the Glucose turned out to be 7.80 mmol/L in data set [16] (setting [17]) and 8.56 mmol/L in [16] (4 mg/Kg, once a week). For the same compound, the Hemoglobin in data set [16] (setting [17]) was 113 g/L; in [16] (4 mg/Kg, once a week), 115 g/L. For the same compound, the Leukocytes was 1.6e+09 L in data set [16] (setting [17]); 2.1e+09 L in [16] (4 mg/Kg, once a week); “decreased leukocytes” in [16] (4 mg/kg once a week and mg/kg three times a week for 3 weeks). Also, the Lymphocytes came to 0.52 × × 10^9/l in [16] (setting [17]) and 5.2e+08 L⁻¹ in data set [16] (4 mg/Kg, once a week). The Urea in [16] (setting [17]) is 9.06 mmol/L; in data set [16] (4 mg/Kg, once a week) it was 7.57 mmol/L. Also, the “tumor reduction compared with In 250 mg/kg” value in data set [14] (2 mg/kg three times a week for 21 days) is “equivalent”.
